Results as given in patent US9834549B2, “3,3-disubstituted-(8-aza-bicyclo[3.2.1]OCT-8-yl)-[5-(1H-pyrazol-4-yl)-thiophen-3-yl]-methanones as inhibitors of 11 (β)-HSD1” (The University Of Edinburgh, priority 2010, dated 2017).
Like-named read-outs stand apart in the source and are kept apart here.

What was measured:
Pharmacokinetics in rat = assay type: in vivo, male Sprague Dawley rats; conditions: male, Sprague Dawley, intravenous 1 mg/kg and oral 5 mg/kg; for bioavailability: blood, read-out: % F (% bioavailability); for clearance: plasma, read-out: Cl (plasma clearance)
Protocol: The pharmacokinetic parameters of certain compounds were determined following intravenous (1 mg/kg) and oral (5 mg/kg) administration to male Sprague Dawley rats. Dosing solution was prepared by mixing each compound with 2% DMSO, 38% PEG-400 and 60% (0.9%) NaCl. Solutions were passed through 0.2 μm filters prior to administration.
Following dosing and at appropriate time points, blood samples were taken from a lateral tail vein and transferred into a tube pre-treated with EDTA. Blood samples were analysed for parent compound by LCMS and the quantity of parent compound remaining determined. Non-compartmental analysis was applied to the data using WinNonlin™ software to determine the pharmacokinetic parameters for each compound.

[1] = In vitro human liver microsomal stability assay; assay type: in vitro ADME; conditions: human liver microsomes
Protocol: To predict in vivo metabolism of compounds, the stability of compounds incubated with human liver microsomes in vitro was determined. Human liver microsome preparations were stored at −80° C. and thawed on ice prior to use. The thawed microsomes were diluted to a concentration of 2 mg/mL in 50 mM sodium phosphate, pH 7.4. Reference and test compounds were prepared as 10 mM stocks in 100% DMSO and diluted to 1 mM in acetonitrile before use. Each compound was tested in triplicate as follows:
4 μL of test or reference compound was added to a well of a 24-well microplate and 0.5 mL of 4 mM NADPH added. The plate was then transferred to a shaker for 10 minutes at room temperature. 30 μL of the compound/NADPH solution was transferred to the well of a 96-well microplate and incubated at 37° C. for 5 minutes. 30 μL of human liver microsomes (pre-incubated at 37° C. for 5 minutes) was added to the well containing the compound/NADPH solution and the plate incubated for the selected period of time (typically 0 or 30 minutes). The reaction was stopped by adding 60 μL of ice cold […] trichloroacetic acid. The plate was centrifuged at 1000 rpm for 5 minutes at room temperature and the supernatant transferred to the well of a new 96-well V-bottomed microplate for mass spectrometric analysis.
Samples were analyzed by TSQ Quantum Discovery Tandem Mass Spectrometer and Surveyor Liquid Chromatogram (Thermo, Hemel-Hempstead, UK). 10 μL of each sample was injected in a mobile phase consisting of 60%:40% methanol:5 mM ammonium acetate at a flow rate of 0.5 mL/minute. The column used was a BDS hypersil, C18, 50×2.1 mm with a 5 μm particle size.
Each compound was tuned with a spray voltage of 3000 V and a capillary temperature of 300° C. and values for tube lens, CID and product ions were determined.
The peak area for each compound was measured in triplicate for the 0 and 30 minute samples and the average of each was reported. The percentage remaining after 30 minutes was calculated as the average peak area of the sample after 30 minutes divided by the average peak area at 0 minutes. The RSD was 10% or lower for each compound.

human 11β-HSD1 = biological target: T1, human 11β-HSD1 (Homo sapiens, UniProt P28845); test: Cellular in vitro 11β-HSD1 enzyme inhibition assay (SPA, HEK293/11β-HSD1 cells); assay type: cell-based
T1 construct: stably transfected with a construct containing the full-length gene coding for the human 11β-HSD1 enzyme; expressed in transfected cells; host or cells: HEK293 (stably transfected, HEK293/11β-HSD1)
T1 sequence (P28845 whole entry): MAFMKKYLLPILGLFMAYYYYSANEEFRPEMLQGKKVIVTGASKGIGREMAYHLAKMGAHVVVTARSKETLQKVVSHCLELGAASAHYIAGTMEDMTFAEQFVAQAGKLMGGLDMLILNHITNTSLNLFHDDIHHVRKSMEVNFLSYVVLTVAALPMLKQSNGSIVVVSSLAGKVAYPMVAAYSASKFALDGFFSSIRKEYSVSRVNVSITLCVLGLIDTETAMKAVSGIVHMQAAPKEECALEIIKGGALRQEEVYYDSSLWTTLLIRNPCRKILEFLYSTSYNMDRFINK
Protocol: Compounds were assessed by a Scintillation Proximity Assay (SPA) performed according to the following protocol:
HEK293 cells were stably transfected with a construct containing the full-length gene coding for the human 11β-HSD1 enzyme to create HEK293/11β-HSD1 cells. Cells were routinely cultured in DMEM containing 10% calf foetal serum, 1% glutamine, and 1% penicillin and streptomycin. Prior to assay, cells were plated at 2×10^4 cells/well in 96-well poly-D-Lys coated flat-bottomed microplates and incubated in 5% CO2, 95% O2 at 37° C. for 24 hours. The media in each well was removed immediately before assay.
Compounds to be tested were dissolved in DMSO at 10 mM and serially diluted into water containing 10% DMSO. Diluted compounds at a volume of 10 μL were added to wells of a 96-well V-bottomed microplate. A solution of DMEM, 1% glutamine, 1% penicillin and streptomycin, and 22 nM tritiated cortisone was prepared and 90 μL added to each well of the assay plate. This solution (100 μL/well) was transferred to the plate containing the cells. The plate was then incubated in 5% CO2, 95% O2 at 37° C. for 2 hours.
Following this incubation, 50 μL of the assay solution was transferred to each well of a 96-well scintillation microplate. A mixture consisting of anti-mouse YSi SPA beads, pre-mixed with anti-cortisol antibody in assay buffer (50 mM Tris.HCl, pH 7.0; 300 mM NaCl; 1 mM EDTA, 5% glycerol) was prepared and 50 μL added to each well of the scintillation microplate. An adhesive strip was applied to the microplate and the plate gently shaken for at least 2 hours at room temperature, and then spun briefly on a low speed centrifuge. The plate was read on a scintillation counter suitable for 96-well microplates. For the calculation of percentage inhibition, a series of wells were added to the plate that represented the assay maximum and the assay minimum: one set that contained substrate without cells (minimum) and another set that contained substrate and cells without any compound (maximum).
The calculation of median inhibitory concentration (IC50) values for the compounds was performed using GraphPad Prism® software. Dose-response curves for each compound were plotted as fractional inhibition and data fitted to the four parameter logistic equation.

[2] = HEK293, potency groups, read-out: IC50 for 11β-HSD1 (HEK293)
[3] = HEK293 cells transfected with human 11β-HSD1, first value in cell, read-out: IC50 for 11β-HSD1 (HEK293)
[4] = HEK293 cells, value marked * in brackets, read-out: IC50 for 11β-HSD1 (HEK293), (*) average of at least two individual experiments

SMILES: O=C(c1csc(-c2cn[nH]c2)c1)N1C2CCC1CC(O)(c1ncccn1)C2 (stereo not drawn) [XX-20, (3-Hydroxy-3-pyrimidin-2-yl-8-aza-bicyclo[3.2.1]oct-8-yl)-[5-(1H-pyrazol-4-yl)-thiophen-3-yl]-methanone]
- bioavailability (Pharmacokinetics in rat): 41 to 100%
- clearance (Pharmacokinetics in rat): < 25 mL/min/kg
- % Parent Remaining at 30 min [1]: +++ (61-100% +++)
- IC50 (human 11β-HSD1; [2]): ≤ 0.1 µM
- IC50 (human 11β-HSD1; [3]): 0.067 µM
- IC50 (human 11β-HSD1; [4]): 0.042 µM

SMILES: O=C(c1csc(-c2cn[nH]c2)c1)N1C2CCC1CC(O)(c1nccs1)C2 (stereo not drawn) [XX-29]
- bioavailability (Pharmacokinetics in rat): 41 to 100%
- clearance (Pharmacokinetics in rat): < 25 mL/min/kg
- % Parent Remaining at 30 min [1]: +++ (61-100% +++)
- IC50 (human 11β-HSD1; [2]): ≤ 0.1 µM
- IC50 (human 11β-HSD1; [3]): 0.033 µM
- IC50 (human 11β-HSD1; [4]): 0.031 µM
